This is an account of results in patent US20260137820A1, “TRIFUNCTIONAL COMPOUND AND USE THEREOF” (PEKING UNIVERSITY, priority 2022, published 2026).

The Kd is the equilibrium constant for the complex coming apart. Higher therefore signals lower affinity.

In one data set the target is T1, Human FAP Protein (Homo sapiens, UniProt Q12884).
T1 construct: His; purchased Novoprotein (China)
T1 sequence (Q12884 1-760): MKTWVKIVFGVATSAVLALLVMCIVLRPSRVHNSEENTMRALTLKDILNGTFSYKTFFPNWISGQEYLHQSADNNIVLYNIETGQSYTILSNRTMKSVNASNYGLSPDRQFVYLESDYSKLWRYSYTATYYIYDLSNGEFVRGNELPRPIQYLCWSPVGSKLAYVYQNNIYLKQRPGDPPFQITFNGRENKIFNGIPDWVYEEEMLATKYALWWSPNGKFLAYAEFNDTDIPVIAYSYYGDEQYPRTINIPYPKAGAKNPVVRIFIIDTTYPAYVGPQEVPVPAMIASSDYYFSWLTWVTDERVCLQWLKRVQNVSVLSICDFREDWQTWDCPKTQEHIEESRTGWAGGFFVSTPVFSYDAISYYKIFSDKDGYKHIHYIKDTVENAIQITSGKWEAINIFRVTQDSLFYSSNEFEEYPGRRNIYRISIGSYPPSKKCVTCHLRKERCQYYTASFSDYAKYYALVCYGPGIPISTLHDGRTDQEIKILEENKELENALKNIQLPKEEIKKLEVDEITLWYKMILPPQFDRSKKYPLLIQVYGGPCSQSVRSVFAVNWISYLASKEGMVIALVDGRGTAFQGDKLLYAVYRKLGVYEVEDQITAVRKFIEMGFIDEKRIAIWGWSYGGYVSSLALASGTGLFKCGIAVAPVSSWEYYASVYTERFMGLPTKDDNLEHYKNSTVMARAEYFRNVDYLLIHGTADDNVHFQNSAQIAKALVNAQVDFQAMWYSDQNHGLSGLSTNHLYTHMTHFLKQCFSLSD
The data set can be described thus: Surface plasmon resonance, multi-cycle mode. The class given is binding. Particulars: SPR multi-cycle. The procedure:
According to US Pharmacopeia USP43 IMMUNOLOGICAL TEST METHODS-SURFACE PLASMON RESONANCE<1105> and Chinese Pharmacopoeia 2020, Volume IV, Surface plasmon resonance method, Label-free Immunochemistry (IV), 3429 Immunochemistry, General Rule, a surface plasmon resonance experiment was carried out.
A surface plasma chromatograph from Cytiva was used for measurement. Before protein injection, 400 mM condensing agent 1-ethyl-(3-dimethylaminopropyl)carbodiimide hydrochloride and 100 mM N-hydroxysuccinimide were mixed, and a CM5 sensor chip was activated with this mixture for 420 seconds at a flow rate of 10 μL/min. 50 μg/mL protein was then injected into an Fc2 sample channel at a flow rate of 10 μL/min to achieve a protein immobilization level of about 8000-15000 RU. In the control group, no protein was injected. Subsequently, the unreacted chip was blocked with 1M ethanolamine hydrochloride-NaOH at a flow rate of 10 μL/min for 420 seconds.
Different gradient solutions were injected into channels Fc1-Fc2 at a flow rate of 30 μL/min, followed by a 60-second binding phase and a 90-second dissociation phase, and data were collected.
(In SPR one partner is held on a chip, and binding of the other changes the refractive index at the surface.)

Another data set deals with HT-1080-FAP tumor. The data set can be described thus: PET/CT imaging in HT-1080-FAP tumor-bearing mouse model. The class given is in vivo. The settings on record: ^68Ga label, 18.5 MBq via tail vein, p<0.005. The procedure: Mouse model: Nu/Nu mice (SPF grade) were purchased from Beijing Charles River Laboratories (China) and injected subcutaneously with HT-1080-FAP cells to construct a tumor model with high FAP expression.
All PET/CT scans were carried out on Mediso nanoScan® PET 122S small animal PET/CT.
After a certain number of HT-1080-FAP tumor mice were taken and injected via the tail vein with 7.4-18.5 MBq of ^68Ga/^86Y-FAPI-04 (control) and ^68Ga/^86Y-FAPI-CB series molecules at specified time points (Note: the injection of the control and investigation molecules was separated apart by at least five half-lives of the nuclide to ensure that the radioactivity of the previous probe had almost completely decayed and was essentially completely metabolized), imaging was carried out at specified time points. In some examples, the mice were anesthetized and then sacrificed by neck breaking at a certain time point. Organs were dissected and taken for radioactivity measurement.
A ^68Ge-^68Ga generator was eluted with 5 mL of 0.6 M high-purity hydrochloric acid to obtain a Ga-68 hydrochloric acid solution. 1 mL of the Ga-68 solution after elution was taken, and 100 μL of 3 M sodium hydroxide and 130 μL of 3M sodium acetate were added to adjust the acidity to a final pH of 4.0. 12 μg of FAPI-CB-00 compound was added, and the reaction mixture was heated to 70° C. and maintained for 20 min. […]

Molecules are shown by their SMILES.

Consider `N#C[C@@H]1CC(F)(F)CN1C(=O)CNC(=O)c1ccnc2ccc(OCCCN3CCN(C(=O)[C@H](CCCCNC(=O)c4ccc(OS(=O)(=O)F)cc4)NC(=O)CN4CCN(CC(=O)O)CCN(CC(=O)O)CCN(CC(=O)O)CC4)CC3)cc12` [FAPI-CB-01], for which, at Human FAP Protein, the “affinity compared with FAPI-04” value is “improved by approximately two orders of magnitude”, the “binding rate compared with FAPI-04” value was “significantly increased” and the “dissociation rate compared with FAPI-04” value is “decreased”. Further, on Human FAP Protein (1:1 binding model), the Kd amounted to 4.62 pM, the “Rmax (maximum theoretical analyte binding capacity)” value is recorded as 29.3 RU and the kd was 4.79e-05 s⁻¹. The kon at Human FAP Protein (1:1 binding model, read-out: ka) turned out to be 1.04e+07 M⁻¹ s⁻¹. In addition, in the data set with HT-1080-FAP tumor, the “improvement of maximum standard tumor uptake value (SUVmax) compared with FAPI-04” value is “about 2 times”.
